Laboratory results reported in patent US6452005B1, “JAK-3 inhibitors for treating allergic disorders” (Parker Hughes Institute, priority 1999, dated 2002).

Tests used:
IRK = biological target: T1, IRK (Homo sapiens, UniProt P06213); experiment: Immune complex kinase assay, IRK from HepG2 cells; format: biochemical; details: concentrations as high as 350 μM
T1 construct: IRK was immunoprecipitated from the lysates with an anti-IRb antibody; endogenous in cells; host or cells: HepG2 human hepatoma cells, insulin-stimulated
Description: For insulin receptor kinase (IRK) assays, HepG2 human hepatoma cells grown to approximately 80% confluency were washed once with serum-free DMEM and starved for 3 hours at 37° in a CO2 incubator. Subsequently, cells were stimulated with insulin (Eli Lilly, cat# CP-410;10 units/ml/10×10^6 cells) for 10 minutes at room temperature. Following this IRK activation step, cells were washed once with serum free medium, lysed in NP-40 buffer and IRK was immunoprecipitated from the lysates with an anti-IRb antibody (Santa Cruz, Cat.# sc-711, polyclonal IgG). Prior to performing the immune complex kinase assays, the beads were equilibrated with the kinase buffer (30 mM Hepes pH 7.4, 30 mM NaCl, 8 mM MgCl2, 4 mM MnCl2).

[1] = tested on: JAK1/JAK2-dependent STAT activation; experiment: EMSA, IL-3 triggered STAT activation in 32Dc11/IL2Rβ cells; format: cell-based; details: 10 μg/ml
Description: Electrophoretic Mobility Shift Assays (EMSAs). EMSAs were performed to examine the effects of dimethoxyquinazoline compounds on cytokine-induced STAT activation (Goodman et. al., 1998). […] Cells were collected after 15 minutes and resuspended in lysis buffer (100 mM Tris-HCl pH 8.0, 0.5% NP-40, 10% glycerol, […], 0.1 mM NaVO3, 50 mM NaF, 150 mM NaCl, 1 mM DTT, 3 μg/ml Aprotinin, 2 μg/ml Pepstatin A, 1 μg/ml Leupeptin and 0.2 mM PMSF). Lysates were precleared by centrifugation for 30 min. Cell extracts (approximately 10 μg) were incubated with 2 μg of poly(dI-dC) for 30 minutes, followed by a 30 minutes incubation with 1ng of poly. nucleotide kinase-^32P labeled double stranded DNA oligonucleotide representing the IRF-1 STAT DNA binding sequence (Santa Cruz Biotechnology, Santa Cruz, Calif.). Samples were resolved by non-denaturing PAGE and visualized by autoradiography.

human mast cells = details: IgE-sensitized, anti-IgE challenge, 30 minutes exposure
Description: Human Mast Cells: Cells from human fetal livers (16 to 21 weeks of gestational age) were cultured for 5 weeks in the presence of 50 ng/ml rhSCF, 2 ng/ml rhlL-4 (Xia et. al., 1997, J. Immunol., 159:2911-2921). Culture medium was replaced with fresh medium once a week for the first 2 weeks and twice a week thereafter. At the end of the 5 weeks, the fetal liver derived cell cultures contained>70% mast cells, based on tryptase staining (Irani et. al., 1989, J. Histochem. Cytochem, 37:1509-1515).
Fetal liver derived human mast cells were resuspended in tyrode buffer containing calcium and magnesium and challenged with anti-FcεRI antibody 22E7 for 15 minutes. […]
Leukotriene (LT) C4 levels were estimated in cell free supernatants by immunoassay (Malaviya et. al., 1993, J. Biol. Chem., 268:4939-4944). […] Tryptase levels were quantitated in cell free supernatants and pellets of fetal liver derived human mast cells as has been described in detail (Xia et. al., 1997, J. Immunol., 159:2911-2921).
Fetal liver derived human mast cells were cultured in presence of SCF and IL-4 for 5 weeks. […] The FcεRI receptors of fetal liver derived human mast cells were crosslinked with anti-IgE and the resulting mast cell degranulation (i.e., β-tryptase) (Xia et. al., 1997, J. Immunol., 159:2911-2921) and LTC4 release (Malaviya et. al., 1993, J. Biol. Chem., 268:4939-4944) were quantitated.

RBL-2H3 mast cells = experiment: IgE/antigen-induced activation (cell spreading, microtubule organization) by confocal microscopy; format: cell-based, rat; details: 30 μM, two hour incubation
Description: RBL-2H3 cells were cultured overnight on 22×22 mm coverslips at a cell density of 0.01×10^6/ml with […] DNP-IgE. Sensitized RBL-2H3 cells were then treated with 30 μM WHI-P131, vehicle, or control compounds WHI-P258 and WHI-P112 prior to challenge with DNP-BSA, as described in the legend of FIG. 4. After stimulation with DNP-BSA for 1 hour, cells were fixed in cold methanol for 15 minutes followed by permeabilization with PBS containing 0.1% Triton X-100. […] After washing 3 times with PBS-0.1% Triton X-100, cells were incubated with fluorescein labeled secondary antibody (Zymed, San Francisco, Calif.) for another 40 minutes. Cells were washed three times to remove unbound antibody. DNA labeling was performed by incubation of coverslips with toto-3 (Molecular Probes, Eugene, Oreg.) for 10 minutes. Excessive dye was washed with PBS-0.1% Triton X-100. Cells were visualized under MRC 1024 Laser Scanning Microscope after mounting with Vectashield (Vector laboratories, Inc, Burlingame, Calif.), as previously reported.
Confocol Microscopy: Staining of mast cells with primary and secondary antibodies followed by confocal laser scanning microscopy was performed as previously described in detail (Uckun et. al., 1998, Clin. Cancer Res., 4:901-912). After staining with appropriate primary and secondary antibodies, cells were washed three times to remove unbound antibody. DNA labeling was performed by incubation of coverslips with toto-3 (Molecular Probes, Eugene, Oreg.) for 10 min. Excessive dye was washed with PBS-0.1% triton X-100. Cells were visualized under MRC 1024 Laser Scanning Microscope after mounting with Vectashield (Vector laboratories, Inc, Burlingame, Calif.).
In a systematic effort aimed at elucidating the biologic consequences of JAK3 inhibition in mast cells, we first sought to determine if the JAK3 inhibitor WHI-P131 could prevent the IgE receptor/FcεRI-mediated activation of mast cells. Since the IgE receptor/FcεRI-mediated activation of mast cells results in a distinct morphologic transformation with marked cell spreading due to membrane ruffling, microtubule formation and actin polymerization (Apgar, 1997), we evaluated the effects of WHI-P131 on the activation-associated transformation of shape and surface topography of RBL-2H3 mast cells using confocal laser scanning microscopy (Ghosh et. al., 1998).

BALB/c mice = experiment: Passive cutaneous anaphylaxis model; format: in vivo; details: 25 mg/kg i.p. dose level
Description: FIG. 14A is a graph showing the effects of WHI-P131 on anaphylaxis-associated vascular hyperpermeability, examined by evaluating the cutaneous extravasation of albumin-bound Evans blue dye in mice (n=12). The plasma exudation indices were determined for vehicle treated as well as WHI-P131 treated mice, as described in the Examples. To study the effect of WHI-P131 on anaphylaxis, IgE sensitized mice were injected with two consecutive doses of 10 or 25 mg/kg WHI-P131 at 90 minutes before and 30 minutes before the antigen challenge, respectively. Mice were then challenged with 100 μg DNP-BSA in 2% Evans blue dye and the plasma exudation indices were determined. […] The data are expressed as plasma exudation index (times increase in optical density over PBS treated ears. The mean OD (at 620 nm) of vehicle treated ears was 0.22±0.04 before and 0.918±0.05 after the IgE/antigen challenge. *p<0.05 compared to vehicle treated controls.
After 20 hours, mice were treated with WHI-P131 (10 or 25 mg/kg i.p.) twice at 1 hour intervals prior to the antigen challenge. […] For quantitation of Evans blue dye extravasation as a measure of anaphylaxis-associated vascular hyperpermeability, 8 mm skin specimens were removed from the ears of mice, minced in 2 ml formamide and incubated at 80° C. for 2 hours in water bath to extract the dye. The absorbance was read at 620 nm. […]

BTK = biological target: T2, BTK (Homo sapiens, UniProt Q06187); experiment: Immune complex kinase assay, BTK from Sf21 cells; format: biochemical; details: concentrations as high as 350 μM
T2 construct: made in house; host or cells: Sf21 insect cells, baculovirus
Text: Immune Complex Kinase Assays.

T1 sequence (P06213 763-1382 limits assumed): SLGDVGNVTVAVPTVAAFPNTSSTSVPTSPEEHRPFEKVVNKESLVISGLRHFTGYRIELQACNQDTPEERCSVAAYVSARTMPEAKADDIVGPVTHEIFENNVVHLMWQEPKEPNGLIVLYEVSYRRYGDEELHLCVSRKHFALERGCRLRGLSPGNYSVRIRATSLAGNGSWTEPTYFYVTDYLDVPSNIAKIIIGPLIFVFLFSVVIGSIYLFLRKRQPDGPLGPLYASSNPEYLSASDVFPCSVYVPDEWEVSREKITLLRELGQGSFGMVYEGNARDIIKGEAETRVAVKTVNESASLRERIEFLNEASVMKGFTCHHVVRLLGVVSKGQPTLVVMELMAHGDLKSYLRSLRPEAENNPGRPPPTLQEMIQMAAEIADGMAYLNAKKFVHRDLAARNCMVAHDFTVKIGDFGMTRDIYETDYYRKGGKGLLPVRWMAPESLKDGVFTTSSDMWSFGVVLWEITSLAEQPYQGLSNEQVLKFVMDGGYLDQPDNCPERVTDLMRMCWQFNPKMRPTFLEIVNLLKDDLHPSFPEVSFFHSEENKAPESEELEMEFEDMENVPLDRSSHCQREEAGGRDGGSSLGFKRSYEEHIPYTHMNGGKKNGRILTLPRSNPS
T1 sequence (P06213 28-758 partner limits assumed): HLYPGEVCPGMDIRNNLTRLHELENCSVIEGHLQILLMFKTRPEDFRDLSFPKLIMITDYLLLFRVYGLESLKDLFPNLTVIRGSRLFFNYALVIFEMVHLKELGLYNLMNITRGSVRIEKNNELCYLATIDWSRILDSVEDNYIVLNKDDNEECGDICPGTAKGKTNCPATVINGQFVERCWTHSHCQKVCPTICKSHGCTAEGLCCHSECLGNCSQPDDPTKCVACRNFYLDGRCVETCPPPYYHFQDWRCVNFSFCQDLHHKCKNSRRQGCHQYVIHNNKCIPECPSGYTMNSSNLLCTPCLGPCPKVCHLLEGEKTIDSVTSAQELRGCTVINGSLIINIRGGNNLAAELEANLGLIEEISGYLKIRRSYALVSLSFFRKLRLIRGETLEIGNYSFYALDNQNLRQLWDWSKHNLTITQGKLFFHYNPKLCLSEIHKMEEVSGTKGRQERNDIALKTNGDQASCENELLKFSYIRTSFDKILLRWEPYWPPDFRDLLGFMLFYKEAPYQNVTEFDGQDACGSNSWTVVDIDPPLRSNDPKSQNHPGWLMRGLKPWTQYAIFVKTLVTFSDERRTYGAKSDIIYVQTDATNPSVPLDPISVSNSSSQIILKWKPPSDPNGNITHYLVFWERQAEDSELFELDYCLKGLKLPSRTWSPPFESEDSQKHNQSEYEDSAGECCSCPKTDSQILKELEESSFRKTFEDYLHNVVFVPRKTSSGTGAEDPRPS
T2 sequence (Q06187 whole entry, species assumed): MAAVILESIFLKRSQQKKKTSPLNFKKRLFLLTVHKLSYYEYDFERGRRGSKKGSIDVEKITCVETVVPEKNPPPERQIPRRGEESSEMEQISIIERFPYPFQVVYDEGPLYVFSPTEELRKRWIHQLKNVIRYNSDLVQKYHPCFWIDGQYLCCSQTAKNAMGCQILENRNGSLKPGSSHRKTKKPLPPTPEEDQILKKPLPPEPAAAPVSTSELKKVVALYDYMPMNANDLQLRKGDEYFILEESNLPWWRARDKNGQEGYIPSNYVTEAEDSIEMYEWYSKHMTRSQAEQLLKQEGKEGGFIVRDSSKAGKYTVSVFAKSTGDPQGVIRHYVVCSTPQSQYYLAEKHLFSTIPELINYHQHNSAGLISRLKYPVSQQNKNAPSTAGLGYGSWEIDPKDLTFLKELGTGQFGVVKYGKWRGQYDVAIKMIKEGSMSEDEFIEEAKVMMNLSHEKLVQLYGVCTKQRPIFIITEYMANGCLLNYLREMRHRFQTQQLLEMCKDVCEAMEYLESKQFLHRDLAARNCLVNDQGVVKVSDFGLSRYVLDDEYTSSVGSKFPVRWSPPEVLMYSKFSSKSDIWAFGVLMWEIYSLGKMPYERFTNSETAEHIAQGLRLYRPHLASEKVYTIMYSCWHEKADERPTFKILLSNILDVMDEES

**Q.** `COc1cc2ncnc(Nc3ccc(O)cc3)c2cc1OC` [WHI-P131, 4-(4′-Hydroxylphenyl)-amino-6,7-dimethoxyquinazoline] was tested. Which “effect on enzymatic activity of IRK” value (IRK) did it give?
**A.** Its value is “did not affect”.

**Q.** What about the “JAK1/JAK2-dependent STAT activation after stimulation with IL-3” value [1] of the same compound?
**A.** The value was “did not affect”.

**Q.** What about the “release of LTC4” value (human mast cells) of the same compound?
**A.** Its value is “inhibited”.

**Q.** And the “release of β-tryptase” value (human mast cells)?
**A.** The value was “inhibited”.

**Q.** What about the “IgE/antigen-induced mast cell activation (spreading and microtubule organization)” value (RBL-2H3 mast cells) of the same compound?
**A.** Its value is “prevented”.

**Q.** What about the “cells spindle shaped after IgE/antigen” value (RBL-2H3 mast cells) of the same compound?
**A.** Its value is 58%.

**Q.** What about the “cells flattened after IgE/antigen” value (RBL-2H3 mast cells; 93% without drug) of the same compound?
**A.** Its value is 23%.

**Q.** And the “inhibition of IgE/antigen induced plasma exudation (Evans blue extravasation)” value (BALB/c mice)?
**A.** Its value is 70%.

**Q.** What about the “effect on enzymatic activity of BTK” value (BTK) of the same compound?
**A.** Its value is “did not affect”.
